Experimental data from patent publication US20050176775A1, “Substituted pyridinones” (priority 2003, published 2005).

Compared with `Cc1ccc(COc2ccn(Cc3ccccc3)c(=O)c2Br)cc1` [Example 44, 1-benzyl-3-bromo-4-[(4-methylbenzyl)oxy]pyridin-2(1H)-one], `Cc1ccc(Cn2ccc(OCc3ccccc3)c(Br)c2=O)cc1` [Example 2, 4-(benzyloxy)-3-bromo-1-(4-methylbenzyl)pyridin-2(1H)-one] is higher in melting point: 149 to 149.7 °C for the first, 150.4 to 151.2 °C for the second.

Compared with `CC(C)(C)OC(=O)NCc1cccc(Cn2ccc(OCc3ccc(F)cc3)c(Br)c2=O)c1` [Example 70, {3-[3-bromo-4-(4-fluorobenzyloxy)-2-oxo-2H-pyridin-1-ylmethyl]benzyl}carbamic Acid Tert-Butyl Ester], `CC(C)(C)OC(=O)NCc1cccc(Cn2ccc(OCc3ccc(F)cc3F)c(Br)c2=O)c1` [Example 78, {3-[3-bromo-4-(2,4-difluorobenzyloxy)-2-oxo-2H-pyridin-1-ylmethyl]benzyl}carbamic Acid Tert-Butyl Ester] is lower in melting point: 136 to 138 °C for the first, 80 to 84 °C for the second.

`O=c1c(Br)c(OCc2ccc(F)cc2)ccn1CC1CC1` [Example 59, 3-bromo-1-cyclopropylmethyl-4-(4-fluorobenzyloxy)-1H-pyridin-2-one] and `Cl.O=c1c(Br)c(OCc2ccccc2)ccn1CC1CCCNC1` (stereo not drawn) cannot be ordered by melting point: 139 to 141 °C for the first, 138.1 to 139.2 °C for the second.

First: NCc1cccc(Cn2ccc(OCc3ccc(F)cc3)c(Br)c2=O)c1.O=C(O)C(F)(F)F
Second: NCc1cccc(Cn2ccc(OCc3ccc(F)cc3F)c(Br)c2=O)c1.O=C(O)C(F)(F)F
The melting point of the first is higher: 127 to 139 °C for the first, 80 to 84 °C for the second.

First: O=c1c(Br)c(SCc2ccccc2)ccn1Cc1ccccc1 [Example 46, 1-benzyl-4-[benzylthio]-3-bromopyridin-2(1H)-one]
Second: O=c1c(Br)c(OCc2ccccc2Cl)ccn1Cc1ccccc1 [Example 43, 1-benzyl-3-bromo-4-[(2-chlorobenzyl)oxy]pyridin-2(1H)-one]
The melting point of the first is higher: 180.6 to 182.1 °C for the first, 143.3 to 145.5 °C for the second.

First: O=c1c(Br)c(OCc2ccccc2C(F)(F)F)ccn1Cc1ccccc1 [Example 47, 1-benzyl-3-bromo-4-{[2-(trifluoromethyl)benzyl]oxy}pyridin-2(1H)-one]
Second: NC(=NO)c1ccc(Cn2ccc(OCc3ccccc3)c(Br)c2=O)cc1 [Example 24, 4-{[4-(benzyloxy)-3-bromo-2-oxopyridin-1(2H)-yl]methyl}-N′-hydroxybenzenecarboximidamide]
The melting point of the first is lower: 133.2 to 133.5 °C for the first, 210.2 to 212.2 °C for the second.

First: NC(=O)c1cccc(Cn2ccc(OCc3ccc(F)cc3F)c(Cl)c2=O)c1F [Example 106, 3-[3-chloro-4-(2,4-difluorobenzyloxy)-2-oxo-2H-pyridin-1-ylmethyl]-2-fluoro-benzamide]
Second: COC(=O)c1cccc(Cn2ccc(OCc3ccc(F)cc3F)c(Cl)c2=O)c1F [Example 105, Methyl 3-[3-chloro-4-(2,4-difluorobenzyloxy)-2-oxo-2H-pyridin-1-ylmethyl]-2-fluoro-benzoate]
The melting point of the first is higher: 252 to 254 °C for the first, 171 to 174 °C for the second.

Compared with `O=c1c(Br)c(OCc2ccccc2)ccn1CCc1ccsc1` [Example 29, 4-(benzyloxy)-3-bromo-1-(2-thien-3-ylethyl)pyridin-2(1H)-one], `O=c1c(Br)c(OCc2ccccc2)ccn1CCc1cccs1` [Example 30, 4-(benzyloxy)-3-bromo-1-(2-thien-2-ylethyl)pyridin-2(1H)-one] is lower in melting point: 134 to 134.3 °C for the first, 128 to 129.5 °C for the second.

First: O=c1c(I)c(OCc2ccc(F)cc2F)ccn1Cc1cccc(F)c1 [Example 130, 4-(2,4-Difluorobenzyloxy)-1-(3-fluorobenzyl)-3-iodo-1H-pyridin-2-one]
Second: Cc1c(OCc2ccc(F)cc2F)ccn(Cc2cccc(F)c2)c1=O [Example 129, 4-(2,4-Difluorobenzyloxy)-1-(3-fluorobenzyl)-3-methyl-1H-pyridin-2-one]
The melting point of the first is higher: 164 to 167 °C for the first, 127 to 129 °C for the second.

Compared with `O=c1c(Cl)c(OCc2ccc(F)cc2F)ccn1Cc1ccc2[nH]ccc2c1` [Example 86, 3-chloro-4-(2,4-difluorobenzyloxy)-1-(1H-indol-5-ylmethyl)-1H-pyridin-2-one], `O=c1c(Cl)c(OCc2ccc(F)cc2F)ccn1Cc1ccc2c(c1)CCN2` [Example 88, 3-chloro-4-(2,4-difluorobenzyloxy)-1-(2,3-dihydro-1H-indol-5-ylmethyl)-1H-pyridin-2-one] is lower in melting point: 152 to 153 °C for the first, 137 to 139 °C for the second.

First: O=c1cc(OCc2cccc(Cl)c2)ccn1Cc1ccccc1 [Example 45, 1-benzyl-4-[(3-chlorobenzyl)oxy]pyridin-2(1H)-one]
Second: O=c1cc(OCc2ccccc2Cl)ccn1Cc1ccccc1 [Example 42, 1-benzyl-4-[(2-chlorobenzyl)oxy]pyridin-2(1H)-one]
The melting point of the first is lower: 95.5 to 95.7 °C for the first, 124.6 to 125 °C for the second.

Compared with `O=c1c(Br)c(OCc2ccc(F)c(F)c2)ccn1Cc1cccc(F)c1` [Example 112, 3-bromo-4-(3,4-difluorobenzyloxy)-1-(3-fluorobenzyl)-1H-pyridin-2-one], `O=c1c(Br)c(OCc2ccc(F)c(F)c2F)ccn1Cc1cccc(F)c1` [Example 108, 3-bromo-1-(3-fluorobenzyl)-4-(2,3,4-trifluorobenzyloxy)-1H-pyridin-2-one] is higher in melting point: 172 to 174 °C for the first, 176 to 178 °C for the second.

First: CC(C)NCc1ccc(Cn2ccc(OCc3ccc(F)cc3F)c(Cl)c2=O)cc1 [Example 80, 3-chloro-4-(2,4-difluorobenzyloxy)-1-[4-(isopropylaminomethyl)benzyl]-1H-pyridin-2-one]
Second: CC(C)NCc1cccc(Cn2ccc(OCc3ccc(F)cc3F)c(Br)c2=O)c1 [Example 75, 3-bromo-4-(2,4-difluorobenzyloxy)-1-[3-(isopropylaminomethyl)benzyl]-1H-pyridin-2-one]
The melting point of the first is higher: 146 to 151 °C for the first, 109 to 110 °C for the second.

First: COC(=O)c1ccccc1Cn1ccc(OCc2ccc(F)cc2)c(Br)c1=O [Example 72, methyl 2-[3-Bromo-4-(4-fluorobenzyloxy)-2-oxo-2H-pyridin-1-ylmethyl]benzoate]
Second: COC(=O)c1ccc(Cn2ccc(OCc3ccc(F)cc3F)c(Br)c2=O)cc1 [Example 101, Methyl 4-[3-Bromo-4-(2,4-difluorobenzyloxy)-2-oxo-2H-pyridin-1-ylmethyl]-benzoate]
The melting point of the first is higher: 161 to 165 °C for the first, 136 to 139 °C for the second.

First: CCOC(=O)Cc1cccc(Cn2ccc(OCc3ccc(F)cc3F)c(Br)c2=O)c1 [Example 127, Ethyl {3-[3-Bromo-4-(2,4-difluorobenzyloxy)-2-oxo-2H-pyridin-1-ylmethyl]-phenyl}acetate]
Second: NC(=O)Cc1cccc(Cn2ccc(OCc3ccc(F)cc3F)c(Br)c2=O)c1 [Example 128, 2-{3-[3-Bromo-4-(2,4-difluorobenzyloxy)-2-oxo-2H-pyridin-1-ylmethyl]phenyl}acetamide]
The melting point of the first is lower: 95 to 98 °C for the first, 164 to 167 °C for the second.

First: O=c1c(Cl)c(OCc2ccc(F)cc2F)ccn1Cc1cccc2c1CCNC2 [Example 85, 3-chloro-4-(2,4-difluorobenzyloxy)-1-(1,2,3,4-tetrahydroisoquinolin-5-ylmethyl)-1H-pyridin-2-one]
Second: CS(=O)(=O)c1cccc(Cn2ccc(OCc3ccc(F)cc3F)c(Cl)c2=O)c1 [Example 81, 3-chloro-4-(2,4-difluorobenzyloxy)-1-[(3-methanesulfonyl)benzyl]-1H-pyridin-2-one]
The melting point of the first is higher: 180 to 184 °C for the first, 155 to 157 °C for the second.

Compared with `NC(=O)c1ccc(Cn2ccc(OCc3ccc(F)cc3F)c(Cl)c2=O)cc1` [Example 83, 4-[3-chloro-4-(2,4-difluorobenzyloxy)-2-oxo-2H-pyridin-1-ylmethyl]benzamide], `NC(=O)c1cccc(Cn2ccc(OCc3ccc(F)cc3F)c(Br)c2=O)c1` [Example 102, 3-[3-bromo-4-(2,4-difluorobenzyloxy)-2-oxo-2H-pyridin-1-ylmethyl]benzamide] is lower in melting point: 235 to 238 °C for the first, 198 to 201 °C for the second.

First: COC(=O)c1cccc(Cn2ccc(OCc3ccc(F)cc3F)c(Br)c2=O)c1 [Example 100, Methyl 3-[3-Bromo-4-(2,4-difluorobenzyloxy)-2-oxo-2H-pyridin-1-ylmethyl]benzoate]
Second: N#CCc1cccc(Cn2ccc(OCc3ccc(F)cc3F)c(Br)c2=O)c1 [Example 97, {3-[3-bromo-4-(2,4-difluorobenzyloxy)-2-oxo-2H-pyridin-1-ylmethyl]-phenyl}acetonitrile]
The melting point of the first is lower: 115 to 117 °C for the first, 120 to 121 °C for the second.

First: O=C(O)C(F)(F)F.O=c1c(Cl)c(OCc2ccc(F)cc2F)ccn1Cc1cccc2cnccc12
Second: NCCc1cccc(Cn2ccc(OCc3ccc(F)cc3F)c(Br)c2=O)c1.O=C(O)C(F)(F)F
The melting point of the first is higher: 235 to 238 °C for the first, 70 to 74 °C for the second.

First: Br.Cn1ccc(OCc2ccccc2)c(Br)c1=O [Example 22, 4-(benzyloxy)-3-bromo-1-methylpyridin-2(1H)-one Hydrobromide]
Second: N#Cc1ccccc1Cn1ccc(OCc2ccc(F)cc2F)c(Br)c1=O [Example 98, 2-[3-bromo-4-(2,4-difluorobenzyloxy)-2-oxo-2H-pyridin-1-ylmethyl]benzonitrile]
The melting point of the first is lower: 105.3 to 105.6 °C for the first, 194 to 197 °C for the second.

Compared with `NCc1cccc(Cn2ccc(OCc3ccc(F)cc3F)c(Br)c2=O)c1F` [Example 104, 1-(3-aminomethyl-2-fluorobenzyl)-3-bromo-4-(2,4-difluorobenzyloxy)-1H-pyridin-2-one], `NC(=O)Cc1ccccc1Cn1ccc(OCc2ccc(F)cc2F)c(Br)c1=O` [Example 126, 2-{2-[3-Bromo-4-(2,4-difluorobenzyloxy)-2-oxo-2H-pyridin-1-ylmethyl]-phenyl}acetamide] is higher in melting point: 160 to 163 °C for the first, 178 to 183 °C for the second.

Compared with `Cc1c(OCc2ccc(F)cc2F)cc(C)n(C2CCCCC2)c1=O` [Example 132, 1-cyclohexyl-4-(2,4-difluorobenzyloxy)-3,6-dimethyl-1H-pyridin-2-one], `CN(C)Cc1ccc(Cn2ccc(OCc3ccc(F)cc3F)c(Br)c2=O)cc1` [Example 74, 3-bromo-4-(2,4-difluorobenzyloxy)-1-[(4-dimethylaminomethyl)benzyl]-1H-pyridin-2-one] is lower in melting point: 118 to 120 °C for the first, 111 to 113 °C for the second.

With `O=c1cc(OCc2c(Cl)cccc2Cl)ccn1Cc1ccccc1` [Example 40, 1-benzyl-4-[2,6-(dichlorobenzyl)oxy]pyridin-2(1H)-one] the melting point was 151.6 to 152 °C.
